According to patent US9382197B2, “Substituted hydroxamic acids and uses thereof” (Millennium Pharmaceuticals, Inc., priority 2010, dated 2016):

These molecules were tested against T1, purified human HDAC6 (Homo sapiens, UniProt Q9UBN7) (assay: HDAC6 Enzyme Assay). Settings: bin: greater than 500 nM and less than 1 μM (lower bound in nM, upper bound in μM).
T1 construct: purchased BPS Bioscience 5006
T1 sequence (Q9UBN7 1-1215): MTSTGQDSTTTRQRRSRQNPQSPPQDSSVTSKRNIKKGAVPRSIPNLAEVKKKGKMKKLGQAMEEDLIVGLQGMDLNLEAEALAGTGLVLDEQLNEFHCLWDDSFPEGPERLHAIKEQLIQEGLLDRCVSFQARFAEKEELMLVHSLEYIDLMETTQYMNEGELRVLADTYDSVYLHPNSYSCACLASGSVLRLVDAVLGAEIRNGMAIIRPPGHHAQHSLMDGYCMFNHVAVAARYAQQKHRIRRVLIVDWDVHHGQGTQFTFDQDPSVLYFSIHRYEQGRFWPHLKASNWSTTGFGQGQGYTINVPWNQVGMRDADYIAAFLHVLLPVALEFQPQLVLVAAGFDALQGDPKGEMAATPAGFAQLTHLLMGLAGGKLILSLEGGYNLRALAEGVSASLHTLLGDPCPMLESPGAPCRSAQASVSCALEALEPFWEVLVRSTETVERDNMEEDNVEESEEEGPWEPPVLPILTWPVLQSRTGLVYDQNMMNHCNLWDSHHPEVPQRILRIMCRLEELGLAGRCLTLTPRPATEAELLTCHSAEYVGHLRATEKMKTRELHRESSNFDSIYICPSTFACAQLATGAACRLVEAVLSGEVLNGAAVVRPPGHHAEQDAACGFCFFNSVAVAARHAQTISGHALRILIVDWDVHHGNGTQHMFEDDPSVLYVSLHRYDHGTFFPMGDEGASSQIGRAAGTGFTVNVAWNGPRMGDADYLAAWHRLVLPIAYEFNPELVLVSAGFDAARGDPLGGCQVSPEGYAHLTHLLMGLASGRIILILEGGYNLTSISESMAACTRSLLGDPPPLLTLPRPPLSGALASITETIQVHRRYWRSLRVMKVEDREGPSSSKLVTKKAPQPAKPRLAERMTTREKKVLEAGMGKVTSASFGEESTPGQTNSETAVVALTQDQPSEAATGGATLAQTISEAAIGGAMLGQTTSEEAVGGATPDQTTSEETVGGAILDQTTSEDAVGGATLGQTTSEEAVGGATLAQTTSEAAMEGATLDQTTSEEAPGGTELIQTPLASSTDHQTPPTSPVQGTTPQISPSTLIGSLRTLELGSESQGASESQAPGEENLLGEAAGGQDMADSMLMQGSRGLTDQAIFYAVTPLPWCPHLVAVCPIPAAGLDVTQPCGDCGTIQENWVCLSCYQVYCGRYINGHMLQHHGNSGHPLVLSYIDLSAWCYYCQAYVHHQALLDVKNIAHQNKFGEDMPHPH
Format: biochemical
Outline: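 Purified human HDAC6 incubated 1 h at 30 °C with Ac-Arg-Gly-Lys(Ac)-AMC and compound; trichostatin A stop, trypsin release of AMC, fluorescence Ex 340/Em 460 nm. IC50 from concentration–response relative to DMSO.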
`C[C@H](NC(=O)c1ccc(-c2ccccc2)cc1)c1cccc(C(=O)NO)c1` [Compound I-393, N-((1S)-1-{3-[(hydroxyamino)carbonyl]phenyl}ethyl)biphenyl-4-carboxamide] showed an IC50 of 500 to 1000 nM.

Same assay, conditions: bin: greater than 1 μM
`Cn1c(C(=O)NC(c2ccc(C(=O)NO)cc2)C(C)(C)C)cc2oc(-c3ccccc3)cc21` (stereo not shown) [Compound I-392, N-(1-{4-[(hydroxyamino)carbonyl]phenyl}-2,2-dimethylpropyl)-4-methyl-2-phenyl-4H-furo[3,2-b]pyrrole-5-carboxamide] was tested, and the IC50 was > 1000 nM.
For `CC(C)(C)CC(=O)NC(c1ccc(C(=O)NO)cc1)C(C)(C)C` (stereo not shown) [Compound I-396, 4-{1-[(3,3-dimethylbutanoyl)amino]-2,2-dimethylpropyl}-N-hydroxybenzamide], the IC50 was > 1000 nM.
`CC(NC(=O)Cc1ccc(F)cc1F)c1ccc(C(=O)NO)cc1` (stereo not shown) [Compound I-402, 4-(1-{[(2,4-difluorophenyl)acetyl]amino}ethyl)-N-hydroxybenzamide] was tested, and the IC50 was > 1000 nM.
With `C[C@@H](NS(=O)(=O)c1ccc(C(F)(F)F)cc1)c1cccc(C(=O)NO)c1` [Compound I-403, N-hydroxy-3-[(1R)-1-({[4-(trifluoromethyl)phenyl]sulfonyl}amino)ethyl]benzamide] the IC50 was > 1000 nM.
`COc1cc(C(=O)NO)ccc1C(C)NC(=O)c1cccn1C` (stereo not shown) [Compound I-481, N-(1-{4-[(hydroxyamino)carbonyl]-2-methoxyphenyl}ethyl)-1-methyl-1H-pyrrole-2-carboxamide] was tested, and the IC50 was > 1000 nM.
`COc1cc(C(=O)NO)ccc1C(C)NC(=O)C12CC3CC(CC(C3)C1)C2` (stereo not shown) [Compound I-483, N-(1-{4-[(hydroxyamino)carbonyl]-2-methoxyphenyl}ethyl)adamantane-1-carboxamide] was tested, and the IC50 was > 1000 nM.
In the case of `COc1cc(C(=O)NO)ccc1C(C)NC(=O)C(C)(C)C` (stereo not shown) [Compound I-484, 4-{1-[(2,2-dimethylpropanoyl)amino]ethyl}-N-hydroxy-3-methoxybenzamide], the IC50 is reported as > 1000 nM.
In the case of `Cc1cc(C(=O)NO)ccc1C(C)NC(=O)c1cccn1C` (stereo not shown) [Compound I-486, N-(1-{4-[(hydroxyamino)carbonyl]-2-methylphenyl}ethyl)-1-methyl-1H-pyrrole-2-carboxamide], the IC50 is reported as > 1000 nM.
`CC(NS(=O)(=O)c1ccc(C(F)(F)F)cc1)c1ccc(C(=O)NO)cc1` (stereo not shown) [Compound I-488, N-hydroxy-4-[1-({[4-(trifluoromethyl)phenyl]sulfonyl}amino)ethyl]benzamide] was tested, and the IC50 was > 1000 nM.
For `Cc1cc(C(=O)NO)ccc1C(C)NC(=O)C(C)(C)C` (stereo not shown) [Compound I-490, 4-{1-[(2,2-dimethylpropanoyl)amino]ethyl}-N-hydroxy-3-methylbenzamide], the IC50 was > 1000 nM.
For `Cc1cc(C(=O)NO)ccc1C(C)NC(=O)C12CC3CC(CC(C3)C1)C2` (stereo not shown) [Compound I-491, N-(1-{4-[(hydroxyamino)carbonyl]-2-methylphenyl}ethyl)adamantane-1-carboxamide], the IC50 was > 1000 nM.

Same assay, conditions: purified human HDAC6, substrate Ac-Arg-Gly-Lys(Ac)-AMC, 1 hour at 30° C.; reported as bins
Work on `CC(NC(=O)NC1CCCCC1)c1ccc(C(=O)NO)cc1` (stereo not shown) [Compound I-395, 4-(1-{[(cyclohexylamino)carbonyl]amino}ethyl)-N-hydroxybenzamide] yielded an IC50 of 100 to 500 nM.
`Cc1cc(C)cc(NC(=O)NC(C)c2ccc(C(=O)NO)cc2)c1` (stereo not shown) [Compound I-397, 4-[1-({[(3,5-dimethylphenyl)amino]carbonyl}amino)ethyl]-N-hydroxybenzamide] was tested, and the IC50 was < 100 nM.
In the case of `CC(NC(=O)Nc1ccc(C(F)(F)F)cc1)c1ccc(C(=O)NO)cc1` (stereo not shown) [Compound I-399, N-hydroxy-4-{1-[({[4-(trifluoromethyl)phenyl]amino}carbonyl)amino]ethyl}benzamide], the IC50 is reported as < 100 nM.
For `O=C(NO)c1ccc([C@H](NC(=O)c2cc3ccccc3o2)C(F)(F)F)cc1` [Compound I-400, N-((1S)-2,2,2-trifluoro-1-{4-[(hydroxyamino)carbonyl]phenyl}ethyl)-1-benzofuran-2-carboxamide], the IC50 was < 100 nM.
Molecule `CC(NC(=O)c1cc2ccccc2o1)c1cccc(C(=O)NO)c1` (stereo not shown) [Compound I-401, N-(1-{3-[(hydroxyamino)carbonyl]phenyl}ethyl)-1-benzofuran-2-carboxamide] has an IC50 of 100 to 500 nM.
For `COc1cc(C(=O)NO)ccc1C(C)NC(=O)c1cc2ccccc2s1` (stereo not shown) [Compound I-480, N-(1-{4-[(hydroxyamino)carbonyl]-2-methoxyphenyl}ethyl)-1-benzothiophene-2-carboxamide], the IC50 was 100 to 500 nM.
In the case of `Cc1cc(C(=O)NO)ccc1C(C)NC(=O)c1cc2ccccc2s1` (stereo not shown) [Compound I-485, N-(1-{4-[(hydroxyamino)carbonyl]-2-methylphenyl}ethyl)-1-benzothiophene-2-carboxamide], the IC50 is reported as 100 to 500 nM.
Work on `C[C@@H](NC(=O)C1(C)CCNCC1)c1ccc(C(=O)NO)cc1` [Compound I-487, N-((1R)-1-{4-[(hydroxyamino)carbonyl]phenyl}ethyl)-4-methylpiperidine-4-carboxamide] yielded an IC50 of 100 to 500 nM.
`CC(NS(=O)(=O)c1ccc(C(F)(F)F)cc1)c1ccc(C(=O)NO)cc1` (stereo not shown) [Compound I-488, N-hydroxy-4-[1-({[4-(trifluoromethyl)phenyl]sulfonyl}amino)ethyl]benzamide] was tested, and the IC50 was 100 to 500 nM.
With `C[C@@H](NCC1(C)CCCCC1)c1ccc(C(=O)NO)cc1` [Compound I-489, N-hydroxy-4-((1R)-1-{[(1-methylcyclohexyl)methyl]amino}ethyl)benzamide] the IC50 was 100 to 500 nM.
`Cc1ccc(NC(=O)N[C@@H](c2ccc(C(=O)NO)cc2)C(C)C)cc1C` [Compound I-512, 4-[(1R)-1-({[(3,4-dimethylphenyl)amino]carbonyl}amino)-2-methylpropyl]-N-hydroxybenzamide] was tested, and the IC50 was < 100 nM.
In the case of `C[C@H](NC(=O)N[C@H](C)c1ccc(C(=O)NO)cc1)c1ccccc1` [Compound I-513, N-hydroxy-4-[(1R)-1-({[(1S)-1-phenylethyl]carbamoyl}amino)ethyl]benzamide], the IC50 is reported as < 100 nM.
With `CC(C)[C@@H](NC(=O)N[C@H](C)c1ccccc1)c1ccc(C(=O)NO)cc1` [Compound I-514, N-hydroxy-4-[(1R)-2-methyl-1-({[(1R)-1-phenylethyl]carbamoyl}amino)propyl]benzamide] the IC50 was < 100 nM.
`CC(C)[C@@H](NC(=O)Nc1ccccc1-c1ccccc1)c1ccc(C(=O)NO)cc1` [Compound I-515, 4-((1R)-1-{[(biphenyl-2-ylamino)carbonyl]amino}-2-methylpropyl)-N-hydroxybenzamide] was tested, and the IC50 was < 100 nM.
`CC(C)[C@@H](NC(=O)N[C@@H](C)c1ccccc1)c1ccc(C(=O)NO)cc1` [Compound I-516, N-hydroxy-4-{(1R)-2-methyl-1-[({[(1S)-1-phenylethyl]amino}carbonyl)amino]propyl}benzamide] was tested, and the IC50 was < 100 nM.
`C[C@@H](NC(=O)N[C@H](C)c1ccc(C(=O)NO)cc1)c1ccccc1` [Compound I-517, N-hydroxy-4-[(1R)-1-({[(1R)-1-phenylethyl]carbamoyl}amino)ethyl]benzamide] showed an IC50 of 100 to 500 nM.
With `C[C@@H](NC(=O)Nc1c(F)cccc1F)c1ccc(C(=O)NO)cc1` [Compound I-518, 4-[(1R)-1-({[(2,6-difluorophenyl)amino]carbonyl}amino)ethyl]-N-hydroxybenzamide] the IC50 was < 100 nM.
In the case of `CC(C)[C@@H](Nc1nc(-c2cc(-c3ccccc3)no2)cs1)c1ccc(C(=O)NO)cc1` [Compound I-519, N-hydroxy-4-((1R)-2-methyl-1-{[4-(3-phenylisoxazol-5-yl)-1,3-thiazol-2-yl]amino}propyl)benzamide], the IC50 is reported as < 100 nM.
`CC(C)[C@@H](NC(=O)Nc1c(F)cccc1F)c1ccc(C(=O)NO)cc1` [Compound I-521, 4-[(1R)-1-({[(2,6-difluorophenyl)amino]carbonyl}amino)-2-methylpropyl]-N-hydroxybenzamide] was tested, and the IC50 was < 100 nM.
For `CC(C)[C@@H](NC(=O)NCCc1ccccc1)c1ccc(C(=O)NO)cc1` [Compound I-522, N-hydroxy-4-[(1R)-2-methyl-1-({[(2-phenylethyl)amino]carbonyl}amino)propyl]benzamide], the IC50 was < 100 nM.
With `C[C@@H](NC(=O)Nc1ccccc1-c1ccccc1)c1ccc(C(=O)NO)cc1` [Compound I-523, 4-((1R)-1-{[(biphenyl-2-ylamino)carbonyl]amino}ethyl)-N-hydroxybenzamide] the IC50 was < 100 nM.
With `CC(C)[C@@H](NC(=O)Nc1cccc2ccccc12)c1ccc(C(=O)NO)cc1` [Compound I-524, N-hydroxy-4-((1R)-2-methyl-1-{[(1-naphthylamino)carbonyl]amino}propyl)benzamide] the IC50 was < 100 nM.
